The source of these data is ChEMBL document CHEMBL1155351, “Synthesis and evaluation of novel tricyclic benzo[4.5]cyclohepta[1.2]pyridine derivatives as NMDA/NR2B antagonists” (Bioorg Med Chem Lett, 2009).

Assay [1] can be described thus: Displacement of [3H](E)-N1-(2-methoxybenzyl)-cinnamamidine from human recombinant N-methyl-D-aspartate receptor subunit NR1a/N-methyl D-aspartate receptor subtype 2B expressed in mouse Ltk cells by radioligand binding assay.
The target of assay [2] is Voltage-gated inwardly rectifying potassium channel KCNH2 (Homo sapiens, UniProt Q12809). As to the kind of experiment: Displacement of [35S]MK499 from human ERG expressed in HEK293 cells. In kind it is cell-based. The note with it: for IC50: read-out: IP. For orientation: In a radioligand displacement assay an active substance lowers the binding of a labelled ligand.
Chain of Voltage-gated inwardly rectifying potassium channel KCNH2 (Q12809 whole entry): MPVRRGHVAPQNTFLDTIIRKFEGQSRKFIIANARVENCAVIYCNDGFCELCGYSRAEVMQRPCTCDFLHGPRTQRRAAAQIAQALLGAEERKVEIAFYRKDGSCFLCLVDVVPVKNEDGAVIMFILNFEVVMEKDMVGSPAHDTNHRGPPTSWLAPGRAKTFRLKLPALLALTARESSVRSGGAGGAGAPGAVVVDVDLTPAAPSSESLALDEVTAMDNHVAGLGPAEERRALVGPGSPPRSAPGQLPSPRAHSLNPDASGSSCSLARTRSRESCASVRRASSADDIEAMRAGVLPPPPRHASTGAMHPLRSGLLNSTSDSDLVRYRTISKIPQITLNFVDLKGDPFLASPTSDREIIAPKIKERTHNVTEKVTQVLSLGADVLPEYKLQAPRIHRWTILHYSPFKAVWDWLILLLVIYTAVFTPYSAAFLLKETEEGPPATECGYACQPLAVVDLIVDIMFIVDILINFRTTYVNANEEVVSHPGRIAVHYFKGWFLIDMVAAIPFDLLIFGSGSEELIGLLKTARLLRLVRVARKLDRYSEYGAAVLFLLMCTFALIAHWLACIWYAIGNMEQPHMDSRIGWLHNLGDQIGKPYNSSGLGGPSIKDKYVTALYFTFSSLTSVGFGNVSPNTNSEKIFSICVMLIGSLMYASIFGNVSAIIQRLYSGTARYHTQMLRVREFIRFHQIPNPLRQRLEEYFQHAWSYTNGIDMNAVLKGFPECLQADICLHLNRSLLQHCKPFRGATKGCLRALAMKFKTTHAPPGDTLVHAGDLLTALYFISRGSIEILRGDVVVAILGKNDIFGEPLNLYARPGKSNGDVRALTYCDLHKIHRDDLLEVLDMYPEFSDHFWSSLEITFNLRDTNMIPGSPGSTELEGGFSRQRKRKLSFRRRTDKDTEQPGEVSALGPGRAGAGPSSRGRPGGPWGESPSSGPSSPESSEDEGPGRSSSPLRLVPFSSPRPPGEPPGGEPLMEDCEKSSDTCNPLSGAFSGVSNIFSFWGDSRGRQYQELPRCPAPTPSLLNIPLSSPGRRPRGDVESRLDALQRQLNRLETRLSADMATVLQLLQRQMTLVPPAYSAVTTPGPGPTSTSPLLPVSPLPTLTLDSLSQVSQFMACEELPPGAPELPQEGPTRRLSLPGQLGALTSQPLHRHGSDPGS
The species entered for the next assay is Homo sapiens. As to the kind of experiment: Selectivity ratio of Ki for human NR2B to IP for human ERG.
Assay [3] has as its target Glutamate receptor ionotropic, NMDA 2B (Homo sapiens, UniProt Q13224). As to the kind of experiment: Antagonistic activity against NR2B receptor expressed in mouse Ltk cells assessed as inhibition of calcium influx by FLIPR assay. The class given is functional, cell-based.
The nature of assay [4]: Binding affinity to alpha1 adrenergic receptor.

Chain of Glutamate receptor ionotropic, NMDA 2B (Q13224 whole entry): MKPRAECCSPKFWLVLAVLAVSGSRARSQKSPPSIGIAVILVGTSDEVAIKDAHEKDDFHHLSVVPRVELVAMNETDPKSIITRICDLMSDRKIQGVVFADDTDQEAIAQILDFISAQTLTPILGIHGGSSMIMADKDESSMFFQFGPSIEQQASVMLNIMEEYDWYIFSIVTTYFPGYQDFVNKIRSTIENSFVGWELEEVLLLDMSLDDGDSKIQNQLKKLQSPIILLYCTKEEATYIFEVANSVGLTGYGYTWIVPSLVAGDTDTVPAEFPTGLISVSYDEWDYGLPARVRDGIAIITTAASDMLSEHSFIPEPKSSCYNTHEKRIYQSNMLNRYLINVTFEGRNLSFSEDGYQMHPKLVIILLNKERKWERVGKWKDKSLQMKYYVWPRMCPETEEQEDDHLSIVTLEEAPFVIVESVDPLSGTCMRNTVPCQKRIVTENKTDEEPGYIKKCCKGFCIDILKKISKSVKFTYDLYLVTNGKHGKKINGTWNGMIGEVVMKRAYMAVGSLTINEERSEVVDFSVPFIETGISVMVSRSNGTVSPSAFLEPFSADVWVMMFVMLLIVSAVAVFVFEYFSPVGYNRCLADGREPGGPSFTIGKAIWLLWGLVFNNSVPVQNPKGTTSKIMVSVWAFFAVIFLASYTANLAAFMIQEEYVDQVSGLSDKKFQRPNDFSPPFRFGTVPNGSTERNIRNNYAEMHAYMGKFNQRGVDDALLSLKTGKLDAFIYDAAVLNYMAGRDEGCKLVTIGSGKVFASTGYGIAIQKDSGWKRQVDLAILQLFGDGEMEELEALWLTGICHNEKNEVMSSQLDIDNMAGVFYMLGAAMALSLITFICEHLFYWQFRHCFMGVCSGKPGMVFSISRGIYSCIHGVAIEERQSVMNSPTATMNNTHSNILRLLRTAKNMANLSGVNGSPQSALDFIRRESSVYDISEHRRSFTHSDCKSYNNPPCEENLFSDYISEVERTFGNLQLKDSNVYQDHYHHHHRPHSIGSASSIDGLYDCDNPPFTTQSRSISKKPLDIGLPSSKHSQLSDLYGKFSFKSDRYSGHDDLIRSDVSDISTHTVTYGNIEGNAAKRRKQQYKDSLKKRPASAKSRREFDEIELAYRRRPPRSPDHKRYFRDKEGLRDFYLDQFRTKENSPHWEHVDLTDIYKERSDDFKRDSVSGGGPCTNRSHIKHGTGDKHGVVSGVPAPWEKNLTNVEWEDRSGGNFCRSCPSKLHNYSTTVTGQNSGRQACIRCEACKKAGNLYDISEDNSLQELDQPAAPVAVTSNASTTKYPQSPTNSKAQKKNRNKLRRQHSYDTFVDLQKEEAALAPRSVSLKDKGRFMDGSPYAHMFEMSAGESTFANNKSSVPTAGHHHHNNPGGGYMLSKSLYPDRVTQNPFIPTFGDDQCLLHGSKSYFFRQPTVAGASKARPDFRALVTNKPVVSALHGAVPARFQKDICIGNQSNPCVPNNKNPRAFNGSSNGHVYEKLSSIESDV

Usually Ki stands for the dissociation constant of the complex between target and ligand, obtained from inhibition or displacement. Consider `Cc1ccc(-c2cnc3c(c2)C(O)c2cccc(C#N)c2C=C3)cc1` (centres undefined), for which, in assay [1], the Ki amounted to 10 nM. Besides, the IC50 in assay [2] was determined as 1700 nM.

`N#Cc1cccc2c1C=Cc1ncc(-c3ccccc3)cc1C2O` (single isomer, unassigned; (+)): the Ki in assay [1] stood at 540 nM. In assay [2], the IC50 is 10000 nM.

Take `N#Cc1cccc2c1C=Cc1ncc(N3CCCCC3)cc1C2O` (single isomer, unassigned; (+)): in assay [1], the Ki came out at 35000 nM. Besides, the IC50 in assay [2] came out at 20000 nM.

Take `N#Cc1cccc2c1C=Cc1ncc(N3CCCC3)cc1C2O` (centres undefined): the Ki in assay [1] is 720 nM. The IC50 in assay [2] was 15500 nM.

As to `N#Cc1cccc2c1C=Cc1ncc(-c3cccc(F)c3)cc1C2O` (centres undefined), in assay [1], the Ki stood at 23 nM. Besides, the IC50 in assay [2] was 4970 nM.

In the case of `N#Cc1cccc2c1CCc1ncc(-c3ccccc3)cc1C2O` (centres undefined), in assay [1], the inhibition constant Ki was 56 nM. Also, the IC50 in assay [2] was 3560 nM.

Take `N#Cc1cccc2c1CCc1ncc(-c3ccccc3)cc1C2`: the Ki in assay [1] turned out to be 77 nM. Moreover, the IC50 in assay [2] is 154 nM.

Regarding `N#Cc1cccc2c1C=Cc1ncc(N3CCCCCC3)cc1C2O` (centres undefined), the Ki in assay [1] amounted to 428 nM. Moreover, in assay [2], the IC50 came to 3000 nM.

Take `COc1cccc(-c2cnc3c(c2)C(O)c2cccc(C#N)c2C=C3)c1` (centres undefined): the Ki in assay [1] was found to be 9 nM. Besides, the IC50 in assay [2] worked out at 1530 nM.

In the case of `N#Cc1cccc2c1C=Cc1ncc(N3CCCCC3)cc1C2O` (single isomer, unassigned; (-)) [listing 1 of 2 here], the Ratio in the assay filed under Homo sapiens worked out at 1000.

As to `N#Cc1cccc2c1C=Cc1ncc(-c3ccc(F)cc3)cc1C2O` (centres undefined), in assay [1], the Ki worked out at 3 nM. Besides, the IC50 in assay [2] amounted to 512 nM.

Take `N#Cc1cccc2c1C=Cc1ncc(-c3ccccc3)cc1C2O` (single isomer, unassigned; (-)): the results for the IC50 in assay [3] and in assay [2] were 9 nM and 590 nM, respectively. The Ki is 1 nM in assay [1] and 5000 nM in assay [4].

Take `CC1CCN(c2cnc3c(c2)C(O)c2cccc(C#N)c2C=C3)CC1` (centres undefined): in assay [1], the Ki came out at 83 nM. In assay [2], the IC50 was found to be 5300 nM.

With `N#Cc1cccc2c(=O)c3cc(-c4ccccc4)cnc3ccc12`, the Ki in assay [1] came out at 1000 nM. Also, the IC50 in assay [2] is 882 nM.

For the compound `Cc1cccc(-c2cnc3c(c2)C(O)c2cccc(C#N)c2C=C3)c1` (centres undefined), in assay [1], the Ki was 4 nM. In addition, in assay [2], the IC50 worked out at 1100 nM.

For the compound `N#Cc1cccc2c1C(=O)Nc1ncc(-c3ccccc3)cc1C2`, the inhibition constant Ki in assay [1] came out at 19 nM; in assay [2], 431 nM.

Consider `CN1CCN(c2cnc3c(c2)C(O)c2cccc(C#N)c2C=C3)CC1` (centres undefined), for which the Ki in assay [1] is more than 16000 nM. Besides, the IC50 in assay [2] was found to be 42000 nM.

As to `N#Cc1cccc2c1C=Cc1ncc(N3CCCCC3)cc1C2O` (single isomer, unassigned; (-)) [listing 2 of 2 here], the IC50 in assay [3] came to 27 nM; in assay [2], 20000 nM. Moreover, the Ki in assay [1] was 17 nM; in assay [4], more than 21000 nM.

Take `Cc1ccccc1-c1cnc2c(c1)C(O)c1cccc(C#N)c1C=C2` (centres undefined): the Ki in assay [1] was 6 nM. In addition, the IC50 in assay [2] was determined as 1350 nM.

Turning to `N#Cc1cccc2c1C=Cc1ncc(N3CCOCC3)cc1C2O` (centres undefined), the Ki in assay [1] came out at 196 nM. Also, the IC50 in assay [2] came to 20000 nM.

With `N#Cc1cccc2c1C=Cc1ncc(-c3ccccc3)cc1C2`, the Ki in assay [1] came to 2 nM. In addition, the IC50 in assay [2] was 65 nM.

Consider `N#Cc1cccc2c1C=Cc1ncc(-c3ccccc3)cc1C2O` (racemic), for which the Ki in assay [1] amounted to 2 nM. Besides, the IC50 in assay [2] is 5100 nM.

As to `COc1ccccc1-c1cnc2c(c1)C(O)c1cccc(C#N)c1C=C2` (centres undefined), in assay [1], the Ki turned out to be 13 nM. Also, in assay [2], the IC50 was 5450 nM.

In the case of `CC(=O)OC1c2cc(-c3ccccc3)cnc2C=Cc2c(C#N)cccc21` (centres undefined), the Ki in assay [1] came to 10 nM. Also, the IC50 in assay [2] was found to be 653 nM.

For the compound `COC1c2cc(-c3ccccc3)cnc2C=Cc2c(C#N)cccc21` (centres undefined), the Ki in assay [1] amounted to 4800 nM. The IC50 in assay [2] stood at 660 nM.

Regarding `N#Cc1cccc2c1C=Cc1ncc(-c3ccccc3F)cc1C2O` (centres undefined), the Ki in assay [1] stood at 16 nM. The IC50 in assay [2] is 4440 nM.

As for `N#Cc1cccc2c1C=Cc1ncc(N3CCCCC3)cc1C2O` (racemic), in assay [1], the Ki was found to be 43 nM. In assay [2], the IC50 was found to be 10000 nM.

Turning to `COc1ccc(-c2cnc3c(c2)C(O)c2cccc(C#N)c2C=C3)cc1` (centres undefined), the Ki in assay [1] was found to be 8 nM. Further, the IC50 in assay [2] amounted to 1610 nM.
